In publication PMC12670405, “Second-Generation AURKA-Targeting PROTACs: Structural Optimization toward in Vivo Degradation in Neuroblastoma” (Journal of Medicinal Chemistry, 2025):
Like-named read-outs stand apart in the source and are kept apart here.

Assays:
AURKA = target: T1, AURKA (Homo sapiens, UniProt O14965); assay: AURKA degradation, Simple Western; assay type: cell-based; set-up: Representative Western blot showing levels of endogenous proteins MDR1, MYCN, AURKA, and CRBN in untreated cell lines; endogenous in cells; host or cells: NGP, IMR-32, SJNB-8, SK-N-BE(2)-C, SK-N-SH, SK-N-AS, SJNB-1, RPE, HEK293T; conditions: for pDC50: AURKA degradation; for DC50: read-out: AURKA DC50;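 as to AURKA Degradation 24h @1000nM: measured in NGP neuroblastoma cells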;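 as to AURKA Degradation 24h @100nM: measured in NGP neuroblastoma cells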
T1 sequence (O14965 1-403): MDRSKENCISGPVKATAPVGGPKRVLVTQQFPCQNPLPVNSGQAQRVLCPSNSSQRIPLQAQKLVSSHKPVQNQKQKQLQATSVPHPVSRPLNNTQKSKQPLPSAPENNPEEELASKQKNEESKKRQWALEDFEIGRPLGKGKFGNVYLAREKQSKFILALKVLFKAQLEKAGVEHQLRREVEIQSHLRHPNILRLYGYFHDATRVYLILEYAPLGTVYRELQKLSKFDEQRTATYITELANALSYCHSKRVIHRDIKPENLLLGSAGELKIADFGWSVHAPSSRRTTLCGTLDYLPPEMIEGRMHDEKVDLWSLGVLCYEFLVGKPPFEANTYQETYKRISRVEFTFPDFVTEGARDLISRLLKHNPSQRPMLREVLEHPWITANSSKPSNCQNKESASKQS
Description: Cells were seeded in T-25 flasks at different densities ranging from 1 to 2 million cells per flask and allowed to adhere for 1–2 days. In experiments involving compound treatment, this was done by medium replacement containing the compound(s) of interest in their corresponding concentrations. In competition binding experiments, cells were first pretreated with an excess of MK-5108, thalidomide or MG-132 for 1 h by shaking gently at room temperature prior to addition of SK4454 or SK5527. All samples were normalized to contain the same percentage of DMSO as the negative DMSO controls. Cells were harvested on ice at their respective time points by scraping, washed with ice-cold PBS to collect remaining cells, and centrifuged (2500 rpm, 4 °C). A second washing and centrifugation step was performed prior to collection of the final cell pellets which were then snap-frozen in liquid nitrogen and kept frozen at −80 °C until further processing. Lysis of cell pellets occurred in cold RIPA buffer (0.5% w/v Sodium Deoxycholate, 150 mM NaCl, 50 mM TrisHCl pH 7.5, 0.1% w/v SDS, 1% w/v NP-40) supplemented with protease and phosphatase inhibitors (Roche, #11836145001, #04906845001) by rotating gently at 4 °C for 1h, followed by a centrifugation step for 10 min (10,000 rpm, 4 °C). The supernatant was collected and concentrations of the obtained protein lysates were measured using the Pierce BCA Protein Assay Kit (Thermo Fisher Scientific, #23227).
Simple Western analyses were performed with the Wes instrument (Bio-Techne) using the 12–230 kDa Wes Separation module and the EZ standard pack reagent 1 (Biotechne, #SM-W001, #PS-ST01EZ-8) following the manufacturer’s protocol. Protein lysates were loaded at 0.8 μg/μL under denaturing conditions (0.2 μg/μL for MYCN detection). Chemiluminescence peaks were generated by the Compass Software (Bio-Techne) and the area under the peaks calculated using the Gaussian fit method. Per lane, quantified data were always normalized to that of the loading control (Vinculin) prior to calculating fold changes relative to the negative DMSO control. Mean fold changes are calculated from 3 individual experiments. A list of the primary and secondary antibodies used can be found in the Supporting Information (Supplementary Table S7).
Graphs were generated using GraphPad Prism Software (version 10.1.2) or RStudio (R-4.3.2). All dose–response curves were computed on GraphPad Prism using the Variable Slope (four parameters) equation. Absolute half-maximal degradation (DC50), growth inhibitory (GI50) and enzymatic inhibitory (IC50) concentrations, as well as inhibition constants (Ki) were derived from dose–response curves via interpolation. Statistical tests were performed on GraphPad Prism and detailed in the figure legends. Unless otherwise stated, “n” in the figure legends indicates the number of independent experiments conducted at different times.

NGP = assay: IncuCyte live-cell imaging, antiproliferative effect; assay type: cell-based; conditions: Homo sapiens, 72 h
From the text: Human neuroblastoma cell lines NGP, IMR-32, SJNB-8, SK-N-BE(2)-C, SJNB-1, SK-N-SH and SK-N-AS, as well as benign immortalized cell lines RPE and HEK293T were either bought commercially or obtained through research laboratories. […] Screening for mycoplasma contamination occurred routinely on the cells. Human neuroblastoma cell lines SH-SY5Y_shABCB1 & SH-SY5Y_shNTC were generated by transduction with pLKO.1-ABCB1_TRCN0000059683 shRNA (Sigma MISSION SHCLND) or pLKO.1-puro NT shRNA (Sigma MISSION SHC002) vectors respectively (Supplementary Table S6), packaged using Lenti-X293T (Clontech). Transduced cells were selected with 2 μg/mL puromycin. These cells were cultured in DMEM 4.5 g/L D-Glucose, L-Glutamine and 110 mg/L Sodium Pyruvate (Gibco, #11995065) supplemented with 10% fetal bovine serum, 1× Antibiotic-Antimycotic solution (Sigma-Aldrich, #A5955) and 1× MEM nonessential amino acids (Sigma-Aldrich, #M7145). Incubation of all cells occurred at 37 °C and 5% CO2.
Neuroblastoma cells were seeded in 384-well plates at different densities ranging from 1200 to 5000 cells/well and allowed to adhere overnight. RPE and HEK293T were seeded at 200 and 600 cells/well, respectively. Compound treatment was performed using the D300e Digital Dispenser (Tecan) in duplicate or triplicate and cell confluency was monitored over time using the IncuCyte Live-cell imaging system (Sartorius). […] Mean normalized confluences were calculated from 3 individual experiments.
All dose–response curves were computed on GraphPad Prism using the Variable Slope (four parameters) equation. Absolute half-maximal degradation (DC50), growth inhibitory (GI50) and enzymatic inhibitory (IC50) concentrations, as well as inhibition constants (Ki) were derived from dose–response curves via interpolation. Statistical tests were performed on GraphPad Prism and detailed in the figure legends. Unless otherwise stated, “n” in the figure legends indicates the number of independent experiments conducted at different times.

SMILES: Cc1cc(Nc2ccc(F)c(CC3(C(=O)N4CC(N5CCC(c6ccc(N7CCC(=O)NC7=O)cn6)CC5)C4)CCN(Cc4cccc(Cl)c4F)CC3)n2)n[nH]1 [PROTAC 35]
- AURKA Degradation 24h @100nM (AURKA): 62
- AURKA Degradation 24h @1000nM (AURKA): 69
- GI50 (NGP; read-out: GI50 72h, 72h): 332 nM
- GI50 (NGP; read-out: pGI50 (converted)): 331 nM

SMILES: O=C1CCC(N2C(=O)c3ccc(N4CCN(C(=O)COCCNC(=O)[C@]5(Cc6cccc(Nc7nccs7)n6)CC[C@@H](Oc6cccc(Cl)c6F)CC5)CC4)cc3C2=O)C(=O)N1 (some centres unmarked) [PROTAC 7]
- AURKA Degradation 24h @100nM (AURKA): 68
- AURKA Degradation 24h @1000nM (AURKA): 77
- GI50 (NGP; read-out: GI50 72h, 72h): 112 nM
- GI50 (NGP; read-out: pGI50 (converted)): 112 nM

SMILES: O=C1CCC(Nc2ccc(N3CCN(C(=O)COCCNC(=O)[C@]4(Cc5cccc(Nc6nccs6)n5)CC[C@@H](Oc5cccc(Cl)c5F)CC4)CC3)cc2)C(=O)N1 (some centres unmarked) [PROTAC 15]
- AURKA Degradation 24h @100nM (AURKA): 38
- AURKA Degradation 24h @1000nM (AURKA): 55
- AURKA degradation activity (in words) (AURKA; NGP, 24 h treatment): only weak AURKA-degrading activity
- GI50 (NGP; read-out: GI50 72h, 72h): 93 nM
- GI50 (NGP; read-out: pGI50 (converted)): 93.3 nM

SMILES: O=C1CCC(N2C(=O)c3ccc(N4CCN(C(=O)COCCOCCNC(=O)[C@]5(Cc6cccc(Nc7nccs7)n6)CC[C@@H](Oc6cccc(Cl)c6F)CC5)CC4)cc3C2=O)C(=O)N1 (some centres unmarked) [PROTAC 9]
- AURKA Degradation 24h @100nM (AURKA): 64
- AURKA Degradation 24h @1000nM (AURKA): 83
- GI50 (NGP; read-out: GI50 72h, 72h): 112 nM
- GI50 (NGP; read-out: pGI50 (converted)): 112 nM

SMILES: O=C1CCC(N2C(=O)c3cccc(N4CCN(C(=O)COCCOCCNC(=O)[C@]5(Cc6cccc(Nc7nccs7)n6)CC[C@@H](Oc6cccc(Cl)c6F)CC5)CC4)c3C2=O)C(=O)N1 (some centres unmarked) [PROTAC 2]
- AURKA Degradation 24h @100nM (AURKA): 70
- AURKA Degradation 24h @1000nM (AURKA): 81
- GI50 (NGP; read-out: GI50 72h, 72h): 72 nM
- GI50 (NGP; read-out: pGI50 (converted)): 72.4 nM

SMILES: O=C1CCC(Nc2ccc(N3CCN(C(=O)COCCOCCNC(=O)[C@]4(Cc5cccc(Nc6nccs6)n5)CC[C@@H](Oc5cccc(Cl)c5F)CC4)CC3)cc2)C(=O)N1 (some centres unmarked) [PROTAC 16]
- AURKA Degradation 24h @100nM (AURKA): 39
- AURKA Degradation 24h @1000nM (AURKA): 75
- AURKA degradation activity (in words) (AURKA; NGP, 24 h treatment): only weak AURKA-degrading activity
- GI50 (NGP; read-out: GI50 72h, 72h): 78 nM
- GI50 (NGP; read-out: pGI50 (converted)): 77.6 nM

SMILES: O=C1CCC(N2C(=O)c3ccc(N4CCN(CCOCCOCCNC(=O)[C@]5(Cc6cccc(Nc7nccs7)n6)CC[C@@H](Oc6cccc(Cl)c6F)CC5)CC4)cc3C2=O)C(=O)N1 (some centres unmarked) [PROTAC 8]
- AURKA Degradation 24h @100nM (AURKA): 76
- AURKA Degradation 24h @1000nM (AURKA): 75
- GI50 (NGP; read-out: GI50 72h, 72h): 56 nM
- GI50 (NGP; read-out: pGI50 (converted)): 56.2 nM

SMILES: O=C1CCC(N2C(=O)c3ccc(N4CCN(CCOCCNC(=O)[C@]5(Cc6cccc(Nc7nccs7)n6)CC[C@@H](Oc6cccc(Cl)c6F)CC5)CC4)cc3C2=O)C(=O)N1 (some centres unmarked) [PROTAC 6]
- AURKA Degradation 24h @100nM (AURKA): 76
- AURKA Degradation 24h @1000nM (AURKA): 82
- GI50 (NGP; read-out: GI50 72h, 72h): 64 nM
- GI50 (NGP; read-out: pGI50 (converted)): 63.1 nM

SMILES: O=C1CCC(Nc2ccc(N3CCN(CC4CCN(C(=O)[C@]5(Cc6cccc(Nc7nccs7)n6)CC[C@@H](Oc6cccc(Cl)c6F)CC5)CC4)CC3)c(F)c2)C(=O)N1 (some centres unmarked) [PROTAC 19]
- AURKA Degradation 24h @100nM (AURKA): 83
- AURKA Degradation 24h @1000nM (AURKA): 93
- GI50 (NGP; read-out: GI50 72h, 72h): 53 nM
- GI50 (NGP; read-out: pGI50 (converted)): 52.5 nM

SMILES: O=C1CCN(c2ccc(N3CCN(C4CCN(C(=O)[C@]5(Cc6cccc(Nc7nccs7)n6)CC[C@@H](Oc6cccc(Cl)c6F)CC5)C4)CC3)nc2)C(=O)N1 (some centres unmarked) [PROTAC 26]
- AURKA Degradation 24h @100nM (AURKA): 71
- AURKA Degradation 24h @1000nM (AURKA): 71
- pDC50 (AURKA): 8,3
- DC50 (AURKA): 5 nM
- GI50 (NGP; read-out: GI50 72h, 72h): 45 nM
- GI50 (NGP; read-out: pGI50 (converted)): 44.7 nM

SMILES: Cc1cc(Nc2ccc(F)c(CC3(C(=O)N4CCC(F)(C(=O)N5CCC(c6ccc(N7CCC(=O)NC7=O)cn6)CC5)CC4)CCN(Cc4cccc(Cl)c4F)CC3)n2)n[nH]1 [PROTAC 38]
- AURKA Degradation 24h @100nM (AURKA): 82
- AURKA Degradation 24h @1000nM (AURKA): 90
- GI50 (NGP; read-out: GI50 72h, 72h): 146 nM
- GI50 (NGP; read-out: pGI50 (converted)): 145 nM

SMILES: O=C1CCC(N2C(=O)c3ccc(OCCOCCN4CCN(C(=O)[C@]5(Cc6cccc(Nc7nccs7)n6)CC[C@@H](Oc6cccc(Cl)c6F)CC5)CC4)cc3C2=O)C(=O)N1 (some centres unmarked) [PROTAC 11]
- AURKA Degradation 24h @100nM (AURKA): 78
- AURKA Degradation 24h @1000nM (AURKA): 80
- pDC50 (AURKA): 8,31
- DC50 (AURKA): 4.9 nM
- GI50 (NGP; read-out: GI50 72h, 72h): 38 nM
- GI50 (NGP; read-out: pGI50 (converted)): 38 nM

SMILES: Cc1cc(Nc2ccc(F)c(CC3(C(=O)N4CCC(CN5CCC(c6ccc(CN7CCC(=O)NC7=O)cn6)CC5)CC4)CCN(Cc4cccc(Cl)c4F)CC3)n2)n[nH]1 [PROTAC 30]
- AURKA Degradation 24h @100nM (AURKA): 42
- AURKA Degradation 24h @1000nM (AURKA): 59
- AURKA degradation activity (in words) (AURKA; NGP, 24 h treatment): weak degradation potency
- Dmax (AURKA; NGP, 24 h treatment): 59%
- GI50 (NGP; read-out: GI50 72h, 72h): 158 nM
- GI50 (NGP; read-out: pGI50 (converted)): 158 nM

SMILES: Cc1cc(Nc2ccc(F)c(CC3(C(=O)N4CC(CN5CCN(c6ccc(N7CCC(=O)NC7=O)cn6)CC5)C4)CCN(Cc4cccc(Cl)c4F)CC3)n2)n[nH]1 [PROTAC 31]
- AURKA Degradation 24h @100nM (AURKA): 80
- AURKA Degradation 24h @1000nM (AURKA): 89
- GI50 (NGP; read-out: GI50 72h, 72h): 98 nM
- GI50 (NGP; read-out: pGI50 (converted)): 97.7 nM

SMILES: O=C1CCC(N2C(=O)c3ccc(N4CCN(C(=O)CNC(=O)[C@]5(Cc6cccc(Nc7nccs7)n6)CC[C@@H](Oc6cccc(Cl)c6F)CC5)CC4)cc3C2=O)C(=O)N1 (some centres unmarked) [PROTAC 5]
- AURKA Degradation 24h @100nM (AURKA): 76
- AURKA Degradation 24h @1000nM (AURKA): 75
- GI50 (NGP; read-out: GI50 72h, 72h): 51 nM
- GI50 (NGP; read-out: pGI50 (converted)): 51.3 nM
